This note sets out measurements from ChEMBL document CHEMBL1201862, “PubChem BioAssay data set” (2004).

Common to all, as to assay: NCI-60 cell line screen, 48 h
For test [1], the system named is ACHN.
For test [2], the system named is HCT-116.
Test [3] concerns HOP-62.
The test system of test [4] is HOP-92.
Test [5] deals with IGROV-1.
For test [6], the system named is K562.
Test [7] deals with KM12.
Test [8] deals with M14.
In test [9] the test system is MDA-N.
The subject of test [10] is Malme-3M.
In test [11] the test system is NCI-H460.
Test [12] deals with OVCAR-3.
Test [13] concerns OVCAR-5.
The test system of test [14] is OVCAR-8.
The test system of test [15] is SF-268.
Test [16] relates to SK-MEL-28.
The test system of test [17] is SK-MEL-5.
The test system of test [18] is T47D.
Test [19] concerns UACC-257.
Test [20] has as its system UACC-62.

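Compound exposure: 48 hours, 5 concentrations, 96-well plates. GI50 marks 50% less growth.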 Active and inactive are the calls of the source. Rule as the data show it: active = GI50 up to about 1.1 µM and inactive = higher.

Take `COC(=O)C(Cc1ccccc1)C(=O)NC(CNC(=O)OCc1ccccc1)C(=O)OCc1ccccc1` (stereo not given): the GI50 in [1] was 34.6 µM (inactive); in test [2], 31.9 µM (inactive); in test [3] it was > 100 µM (inactive); in [4], 32.1 µM (inactive); in test [5] it was 65.6 µM (inactive); in test [6], 15.6 µM (inactive). In addition, the GI50 is 58.9 µM (inactive) in test [7]; 15.3 µM (inactive) in test [8]; 21.4 µM (inactive) in test [9]; 19.8 µM (inactive) in test [10]; 42.1 µM (inactive) in [11]; 20 µM (inactive) in test [12]. Further, the GI50 in test [13] was > 100 µM (inactive); in [14], 63.1 µM (inactive); in test [15] it was 44.8 µM (inactive); in test [16], 19.3 µM (inactive); in [17], 18.8 µM (inactive); in [18], 36.1 µM (inactive). Further, the GI50 in test [19] was 17.6 µM (inactive); in [20], 23.6 µM (inactive).

In the case of `O=c1[nH]c(C23CC4CC(CC(C4)C2)C3)cc2c1c(=O)oc1ccccc12`, the GI50 is 2.92 µM (inactive) in test [1]; 3.06 µM (inactive) in test [2]; 2.7 µM (inactive) in test [3]; 1.04 µM (active) in test [4]; 2.32 µM (inactive) in test [5]; 4.07 µM (inactive) in test [6]. Moreover, the GI50 in test [7] is 14.5 µM (inactive); in test [8], 8.65 µM (inactive); in test [9], 12.8 µM (inactive); in [10], 3.65 µM (inactive); in [11], 2.62 µM (inactive); in [12] it was 4.42 µM (inactive). The GI50 in test [13] was 4.82 µM (inactive); in test [14] it was 3.19 µM (inactive); in test [15], 0.944 µM (active); in test [16], 5.86 µM (inactive); in [17], 4.6 µM (inactive); in test [18], 8.89 µM (inactive). The values for the GI50 in test [19] and in test [20] were 19.8 µM (inactive) and 13.4 µM (inactive), respectively.

Consider `O=C(c1ccc(Cl)cc1)C1OC12C(=O)Nc1ccccc12` (stereo not given), for which the GI50 was 15.1 µM (inactive) in test [1]; 3.61 µM (inactive) in test [2]; 35.1 µM (inactive) in test [3]; 10.8 µM (inactive) in test [4]; 19.8 µM (inactive) in [5]; 0.658 µM (active) in test [6]. The GI50 in test [7] was 15.6 µM (inactive); in test [8] it was 6.18 µM (inactive); in [9], 3.64 µM (inactive); in test [10] it was 4.55 µM (inactive); in test [11], 18.5 µM (inactive); in test [12] it was 24.6 µM (inactive). For the same molecule, the GI50 was 19.2 µM (inactive) in test [13]; 12.1 µM (inactive) in test [14]; 16.8 µM (inactive) in test [15]; 15.2 µM (inactive) in test [16]; 12.1 µM (inactive) in test [17]; 16.3 µM (inactive) in test [18]. The GI50 in [19] was 13.8 µM (inactive); in test [20], 14.8 µM (inactive).

In the case of `O=c1c(F)cn2c(=O)n1CCCCCCCn1c(=O)c(F)cn(c1=O)CCCCCCC2`, the GI50 in test [1] is > 100 µM (inactive); in test [2], 73.5 µM (inactive); in test [3] it was 46.6 µM (inactive); in test [4], 57.7 µM (inactive); in test [5], > 100 µM (inactive); in test [6], > 100 µM (inactive). The GI50 was 73.1 µM (inactive) in test [7]; 36.1 µM (inactive) in test [8]; > 100 µM (inactive) in test [9]; 35.7 µM (inactive) in [10]; > 100 µM (inactive) in test [11]; 61.7 µM (inactive) in [12]. For the same molecule, the GI50 in test [13] was > 100 µM (inactive); in [14], 59.4 µM (inactive); in [15] it was 0.59 µM (active); in test [16], 3.13 µM (inactive); in test [17], 39.9 µM (inactive); in test [18], > 100 µM (inactive). Also, the GI50 in test [19] is 36.4 µM (inactive); in test [20] it was 60.5 µM (inactive).

In the case of `C=C1C(=O)OC2CC(C)C3CC(O)OC(OCC)C3(C)CC12` (stereo not given), the GI50 is 15.4 µM (inactive) in test [1]; 11.9 µM (inactive) in [2]; 20.9 µM (inactive) in [3]; 16 µM (inactive) in test [4]; 19.3 µM (inactive) in test [5]; 11.8 µM (inactive) in [6]. Also, the GI50 in test [7] was 20.6 µM (inactive); in test [8], 14.8 µM (inactive); in test [9], 17.5 µM (inactive); in test [10], 10.9 µM (inactive); in test [11], 18.6 µM (inactive); in [12], 15.3 µM (inactive). For the same molecule, the GI50 in test [13] is 20.2 µM (inactive); in test [14], 15.7 µM (inactive); in test [15], 18 µM (inactive); in test [16], 13 µM (inactive); in [17], 15.5 µM (inactive); in test [18], 16.6 µM (inactive). In addition, the GI50 is 16.3 µM (inactive) in [19] and > 37.6 µM (inactive) in test [20].

As to `C[N+](C)([O-])CCCNc1c2ccccc2nc2cccc([N+](=O)[O-])c12`, the GI50 in test [1] is 0.324 µM (active); in test [2] it was 0.228 µM (active); in [3], 0.385 µM (active); in test [4] it was 0.31 µM (active); in test [5] it was 0.259 µM (active); in test [6], 0.253 µM (active). Moreover, the GI50 in [7] is 0.412 µM (active); in test [8], 0.258 µM (active); in test [9], 0.173 µM (active); in test [10], 0.173 µM (active); in test [11], 0.142 µM (active); in test [12], 0.308 µM (active). Besides, the GI50 in test [13] was 0.355 µM (active); in test [14] it was 0.635 µM (active); in test [15] it was 0.274 µM (active); in test [16] it was 0.684 µM (active); in test [17], 0.161 µM (active); in [18], 0.257 µM (active). Further, the GI50 was 0.536 µM (active) in test [19] and 0.219 µM (active) in test [20].

Turning to `COc1ccc(C2C3=C(COC3=O)OC(C)(C)Oc3cc4c(cc32)OCO4)cc1OC` (stereo not given), the GI50 is 51.5 µM (inactive) in test [1]; 34.6 µM (inactive) in test [2]; 63.5 µM (inactive) in test [3]; 37.5 µM (inactive) in test [4]; 36.9 µM (inactive) in test [5]; 30.8 µM (inactive) in test [6]. Further, the GI50 in test [7] is 24 µM (inactive); in [8], 28.2 µM (inactive); in test [9], 19.8 µM (inactive); in [10], 29.7 µM (inactive); in [11], 37.1 µM (inactive); in test [12] it was 33.2 µM (inactive). The GI50 was > 77.8 µM (inactive) in test [13]; 46.1 µM (inactive) in test [14]; 21.1 µM (inactive) in test [15]; 53.2 µM (inactive) in test [16]; 30.3 µM (inactive) in test [17]; 37.5 µM (inactive) in test [18]. In addition, the GI50 in test [19] was 39.4 µM (inactive); in [20], 34 µM (inactive).

As for `CC(C)(S)C(N)C(=O)O` (stereo not drawn) [DL-PENICILLAMINE], the GI50 in [1], in test [2], in [3], in [4], in [5] and in test [6] was > 100 µM (inactive) in each case. Further, the GI50 in [7], in test [8], in test [9], in test [10], in test [11] and in [12] was > 100 µM (inactive) throughout. In addition, the GI50 in test [13], in test [14], in [15], in test [16], in test [17] and in test [18] was > 100 µM (inactive) each time. In addition, the GI50 in test [19] and in test [20] was > 100 µM (inactive) each time.
